Laboratory results taken from patent publication US6432683B1, “Preparation of 2-aminomuconate from 2-aminophenol by coupled enzymatic dioxygenation and dehydrogenation reactions” (The United States of America as represented by the …, priority 2000, dated 2002).

- half-life (buffer, pH 9.5): 20 h
- amount lost on freezing and thawing (pH 8.0 in potassium phosphate buffer): 50%
- decomposition on freezing and thawing (pH 9.5 (Tris-HCl)): about 2%
- amount lost on storage (solution stored on ice for 50 h, 0.34 mM): 30%
Structure (SMILES): NC(=CC=CC(=O)O)C(=O)O [2-Aminomuconate, 2-aminohexa-2,4-diene-1,6-dioate]
